Data published in BindingDB's records for patent US20250289799 (Jiangsu Yahong Meditech Co., 2025).
pIC50: −log10 of the molar value.

Each compound was assayed against Ubiquitin carboxyl-terminal hydrolase 1/WD repeat-containing protein 48 (Homo sapiens, UniProt O94782+Q8TAF3) (assay: In Vitro USP1  Inhibitory Activity).
Protocol: Experimental Methods1) Preparation of 1× assay buffer: 1× assay buffer (modified Tris buffer) was prepared;2) Compound dilution: The compound was transferred to the assay plate by Echo.

Sequence of Ubiquitin carboxyl-terminal hydrolase 1/WD repeat-containing protein 48 (O94782 whole entry): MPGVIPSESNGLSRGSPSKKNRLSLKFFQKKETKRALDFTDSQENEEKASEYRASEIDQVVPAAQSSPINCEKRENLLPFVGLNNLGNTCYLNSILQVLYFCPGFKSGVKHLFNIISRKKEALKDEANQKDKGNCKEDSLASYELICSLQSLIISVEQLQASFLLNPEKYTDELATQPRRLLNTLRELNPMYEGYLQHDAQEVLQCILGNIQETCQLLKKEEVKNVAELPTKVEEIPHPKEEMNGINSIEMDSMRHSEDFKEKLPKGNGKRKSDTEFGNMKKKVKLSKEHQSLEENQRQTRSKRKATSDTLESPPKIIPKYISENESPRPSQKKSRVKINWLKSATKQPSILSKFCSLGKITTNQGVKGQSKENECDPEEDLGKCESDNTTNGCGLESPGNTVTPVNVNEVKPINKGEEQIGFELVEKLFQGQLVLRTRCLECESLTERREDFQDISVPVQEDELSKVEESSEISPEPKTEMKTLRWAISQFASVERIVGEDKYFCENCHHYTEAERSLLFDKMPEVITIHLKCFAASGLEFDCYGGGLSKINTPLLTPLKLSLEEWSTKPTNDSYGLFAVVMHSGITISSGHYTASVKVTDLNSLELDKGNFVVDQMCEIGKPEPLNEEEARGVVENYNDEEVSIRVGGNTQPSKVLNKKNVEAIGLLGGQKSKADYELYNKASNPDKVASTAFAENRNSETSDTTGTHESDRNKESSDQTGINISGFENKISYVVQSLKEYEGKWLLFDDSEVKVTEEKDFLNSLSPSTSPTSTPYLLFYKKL
Sequence of Ubiquitin carboxyl-terminal hydrolase 1/WD repeat-containing protein 48 (Q8TAF3 whole entry): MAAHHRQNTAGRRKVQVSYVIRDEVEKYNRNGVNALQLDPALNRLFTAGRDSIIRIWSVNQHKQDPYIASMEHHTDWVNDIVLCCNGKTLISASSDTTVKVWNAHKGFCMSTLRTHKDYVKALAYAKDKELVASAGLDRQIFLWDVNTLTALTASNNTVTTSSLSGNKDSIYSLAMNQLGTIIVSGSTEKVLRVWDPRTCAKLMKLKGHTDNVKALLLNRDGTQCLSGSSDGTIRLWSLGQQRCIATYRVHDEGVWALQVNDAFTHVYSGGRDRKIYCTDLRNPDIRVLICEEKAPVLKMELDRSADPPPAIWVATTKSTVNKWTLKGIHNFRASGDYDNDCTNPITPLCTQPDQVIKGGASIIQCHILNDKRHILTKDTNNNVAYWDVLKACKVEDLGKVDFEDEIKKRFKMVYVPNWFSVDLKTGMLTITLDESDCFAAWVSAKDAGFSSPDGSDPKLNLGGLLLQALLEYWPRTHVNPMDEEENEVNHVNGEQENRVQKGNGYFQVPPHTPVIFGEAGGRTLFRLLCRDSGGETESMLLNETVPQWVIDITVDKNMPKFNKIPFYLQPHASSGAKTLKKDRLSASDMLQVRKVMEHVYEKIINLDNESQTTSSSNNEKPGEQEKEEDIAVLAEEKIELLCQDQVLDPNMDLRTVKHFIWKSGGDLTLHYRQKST

Compound	pIC50
COc1cnc(-c2c(OC)ncnc2C2CC2)nc1NCC12CCC(c3nc(C(F)(F)F)cn3C)(CC1)CC2 [US20250289799, Example 104]	8.06
COc1cnc(-c2c(OC)ncnc2C2CC2)nc1NCc1ccc(-c2nc(C(F)(F)F)cn2C(C)C)cc1 [US20250289799, Example 106]	8.54
COc1cnc(-c2c(OC)ncnc2C2CC2)nc1NCc1ccc(-c2nc(C(F)(F)F)cn2CF)cc1 [US20250289799, Example 107]	7.80
COc1ncnc(C2CC2)c1-c1ncc(OC(C)C)c(N(C)Cc2ccc(-c3nc(C(F)(F)F)cn3C)cc2)n1 [US20250289799, Example 109]	8.28
COc1ncnc(C2CC2)c1-c1ncc(OC(C)C)c(NCc2ccc(-c3nc(C(F)(F)F)cn3C)cc2)n1 [US20250289799, Example 111]	7.98
COc1ncnc(C2CC2)c1-c1ncc(OC(C)C)c(NCC23CCC(c4ccc(C(F)(F)F)cn4)(CC2)CC3)n1 [US20250289799, Example 112]	6.58
COc1ncnc(C2CC2)c1-c1nc(NCc2ccc(-c3nc(C(F)(F)F)cn3C)s2)c2occc2n1 [US20250289799, Example 113]	7.64
COc1ncnc(C2CC2)c1-c1nc(NCc2ccc3c(c2)CCN(C)C3=O)c2occc2n1 [US20250289799, Example 114]	6.19
COc1ncnc(C2CC2)c1-c1nc(NCc2ccc(OCc3ccccn3)cc2)c2occc2n1 [US20250289799, Example 116]	7.71
CCOCCOc1ccc(CNc2nc(-c3c(OC)ncnc3C3CC3)nc3ccoc23)cc1 [US20250289799, Example 117]	7.86
COc1ncnc(C2CC2)c1-c1nc(NCc2ccc(OC3CC(OC)C3)cc2)c2occc2n1 (configuration not stated) [US20250289799, Example 118]	7.24
COc1cc(-c2nc(C(F)(F)F)cn2C)ccc1CNc1nc(-c2c(OC)ncnc2C2CC2)nc2ccoc12 [US20250289799, Example 119]	8.12
COc1cc(CNc2nc(-c3c(OC)ncnc3C3CC3)nc3ccoc23)ccc1-c1nc(C(F)(F)F)cn1C [US20250289799, Example 120]	8.05
COc1cc(-n2nc(C(F)(F)F)cc2C)ccc1CNc1nc(-c2c(OC)ncnc2C2CC2)nc2ccoc12 [US20250289799, Example 121]	8.08
COc1cc(CNc2nc(-c3c(OC)ncnc3C3CC3)nc3ccoc23)ccc1-n1nc(C(F)(F)F)cc1C [US20250289799, Example 122]	7.89
COc1ncnc(C2CC2)c1-c1ncc(Cl)c(NCc2ccc(-c3nc(C(F)(F)F)cn3C3CC3)cc2)n1 [US20250289799, Example 125]	8.51
COc1ncnc(C2CC2)c1-c1ncc(Cl)c(NCc2ccc(-c3nc(C(F)(F)F)cn3CF)cc2)n1 [US20250289799, Example 126]	7.89
[2H]C([2H])([2H])N(Cc1ccc(-c2nc(C(F)(F)F)cn2C2CC2)cc1)c1nc(-c2c(OC)ncnc2C2CC2)ncc1F [US20250289799, Example 128]	8.59
COc1ncnc(C2CC2)c1-c1ncc(C#N)c(NCc2ccc(-c3nc(C(F)(F)F)cn3C)cc2)n1 [US20250289799, Example 131]	8.13

Compound	pIC50
COc1ncnc(C2CC2)c1-c1ncc(OC(F)F)c(NCC2CCN(c3nc(C(F)(F)F)cn3C)CC2)n1 [US20250289799, Example 133]	7.82
COCc1cnc(-c2c(OC)ncnc2C2CC2)nc1N(C)Cc1ccc(-c2nc(C(F)(F)F)cn2C(C)C)cc1 [US20250289799, Example 138]	8.05
COc1cnc(-c2c(OC)ncnc2C2CC2)nc1N(Cc1ccc(-c2nc(C(F)(F)F)cn2C)cc1)C1CCOC1 (configuration not stated) [US20250289799, Example 140]	7.14
COc1cnc(-c2c(OC)ncnc2C2CC2)nc1N(Cc1ccc(-c2nc(C(F)(F)F)cn2C)cc1)C1CC1 [US20250289799, Example 141]	8.02
COc1cnc(-c2c(OC)ncnc2C2CC2)nc1N(Cc1ccc(-c2nc(C(F)(F)F)cn2C)cc1)OC [US20250289799, Example 142]	7.60
COc1cnc(-c2cccc3ccn(C)c23)nc1NCc1ccc(-c2nc(C(F)(F)F)cn2C)cc1 [US20250289799, Example 143]	7.51
COc1cnc(-c2cccc3ccn(C)c23)nc1NCc1ccc(-n2nc(C(F)(F)F)cc2C)cc1 [US20250289799, Example 144]	7.16
COc1cnc(-c2cccc3c2N(C)CC3)nc1NCc1ccc(-c2nc(C(F)(F)F)cn2C)cc1 [US20250289799, Example 145]	7.72
COc1cnc(-c2c(C)ncn2C(C)C)nc1NCc1ccc(-c2nc(C(F)(F)F)cn2C)cc1 [US20250289799, Example 147]	6.44
Cc1ncn(C(C)C)c1-c1nc(NCc2ccc(-c3nc(C(F)(F)F)cn3C)cc2)c2occc2n1 [US20250289799, Example 149]	7.16
Cc1ncn(C(C)C)c1-c1nc(NCC23CCC(c4ccc(C(F)(F)F)cn4)(CC2)CC3)c2occc2n1 [US20250289799, Example 150]	6.37
COc1cnc(-c2cccnc2C2CC2)nc1NCc1ccc(-n2nc(C(F)(F)F)cc2C)cc1 [US20250289799, Example 154]	8.21
c1ccc(-c2ccc(CNc3nc(-c4cccnc4C4CC4)nc4ccoc34)cc2)nc1 [US20250289799, Example 155]	7.92
COc1cnc(-c2cccnc2C(C)C)nc1NCc1ccc(-c2nc(C(F)(F)F)cn2C)cc1 [US20250289799, Example 157]	8.54
COc1cnc(-c2ccccc2N(C)C)nc1NCc1ccc(-c2nc(C(F)(F)F)cn2C)cc1 [US20250289799, Example 159]	8.77
COc1cnc(-c2ccccc2N(C)C)nc1NCc1ccc(-n2nc(C(F)(F)F)cc2C)cc1 [US20250289799, Example 160]	8.44
COc1cnc(-c2c(Cl)cnn2C(C)C)nc1NCc1ccc(-c2ccccn2)cc1 [US20250289799, Example 162]	8.41
COc1cnc(-c2c(Cl)cnn2C(C)C)nc1NCC1CCN(c2nc(C(F)(F)F)cn2C)CC1 [US20250289799, Example 163]	8.64
COc1cnc(-c2c(Cl)cnn2C(C)C)nc1NCc1ccc(-n2nc(C(F)(F)F)cc2C)cc1 [US20250289799, Example 165]	8.85

Further compounds by rising pIC50, results first:

pIC50	Compound
7.11	COc1ncnc(C2CC2)c1-c1nc(NCc2ccc3c(c2)CCN(C(C)C)C3=O)c2occc2n1 [US20250289799, Example 115]
7.14	COc1cnc(-c2cccnc2C2CC2)nc1N(C)CC1CCN(c2ccccn2)CC1 [US20250289799, Example 151]
7.22	COc1cnc(-c2c(OC)ncnc2C2CC2)nc1NCc1ccc(-c2nc(C)cn2C(F)F)cc1 [US20250289799, Example 105]
7.54	COc1ncnc(C2CC2)c1-c1ncc(OC(C)C)c(NCC2CCN(c3nc(C(F)(F)F)cn3C)CC2)n1 [US20250289799, Example 110]
7.62	COc1ncnc(C2CC2)c1-c1ncc(CO)c(NCc2ccc(-c3nc(C(F)(F)F)cn3C(C)C)cc2)n1 [US20250289799, Example 137]
7.70	COc1ncnc(C2CC2)c1-c1nc(NCc2ccc(-c3nc(C(F)F)cn3C)cc2)c2occc2n1 [US20250289799, Example 123]
7.71	COc1ncnc(C2CC2)c1-c1ncc(OC(C)C)c(N(C)CC2CCN(c3nc(C(F)(F)F)cn3C)CC2)n1 [US20250289799, Example 108]
7.72	[2H]C([2H])([2H])N(Cc1ccc(-c2nc(C(F)(F)F)cn2CF)cc1)c1nc(-c2c(OC)ncnc2C2CC2)ncc1F [US20250289799, Example 130]
7.77	COc1cc(-c2nc(C(F)(F)F)cn2C)ccc1CNc1nc(-c2c(OC)ncnc2C2CC2)ncc1OC(F)F [US20250289799, Example 136]
7.82	COc1cc(CNc2nc(-c3c(OC)ncnc3C3CC3)ncc2OC)ccc1-c1nc(C(F)(F)F)cn1C [US20250289799, Example 101]
8.00	COc1cc(CNc2nc(-c3c(OC)ncnc3C3CC3)ncc2OC)ccc1-n1nc(C(F)(F)F)cc1C [US20250289799, Example 103]
8.12	COc1cnc(-c2cccnc2C2CC2)nc1NCC1CCN(c2nc(C(F)(F)F)cn2C)CC1 [US20250289799, Example 152]
8.21	COc1ncnc(C2CC2)c1-c1ncc(Cl)c(NCc2ccc(-c3nc(C(F)(F)F)cn3C)cc2)n1 [US20250289799, Example 124]
8.22	C#Cc1cnc(-c2c(OC)ncnc2C2CC2)nc1NCc1ccc(-c2nc(C(F)(F)F)cn2C)cc1 [US20250289799, Example 132]
8.22	COc1cnc(-c2c(Cl)cnn2C(C)C)nc1N(C)CC1CCN(c2ccccn2)CC1 [US20250289799, Example 161]
8.28	C#CCN(Cc1ccc(-c2nc(C(F)(F)F)cn2C)cc1)c1nc(-c2c(OC)ncnc2C2CC2)ncc1OC [US20250289799, Example 139]
8.36	COc1cc(-n2nc(C(F)(F)F)cc2C)ccc1CNc1nc(-c2c(OC)ncnc2C2CC2)ncc1OC [US20250289799, Example 102]
8.47	COc1cnc(-c2cccnc2C2CC2)nc1NCc1ccc(-c2nc(C(F)(F)F)cn2C)cc1 [US20250289799, Example 153]
8.49	COc1ncnc(C2CC2)c1-c1ncc(OC(F)F)c(NCc2ccc(-c3nc(C(F)(F)F)cn3C)cc2)n1 [US20250289799, Example 134]
8.49	COc1ncnc(C2CC2)c1-c1ncc(OC(F)F)c(NCc2ccc(-n3nc(C(F)(F)F)cc3C)cc2)n1 [US20250289799, Example 135]
8.68	COc1cnc(-c2cccnc2C(C)C)nc1NCc1ccc(-n2nc(C(F)(F)F)cc2C)cc1 [US20250289799, Example 158]
8.68	CC(C)n1ncc(Cl)c1-c1nc(NCc2ccc(-c3ccccn3)cc2)c2occc2n1 [US20250289799, Example 166]
8.96	COc1cnc(-c2c(Cl)cnn2C(C)C)nc1NCc1ccc(-c2nc(C(F)(F)F)cn2C)cc1 [US20250289799, Example 164]
9.35	CC(C)n1ncc(Cl)c1-c1nc(NCc2ccc(-c3nc(C(F)(F)F)cn3C)cc2)c2occc2n1 [US20250289799, Example 167]
